According to the supplement of paper PMC10331698:
± gives the standard deviation of the averaged measurements.

Columns and labels:
Assay in all cases: level (log10 ratio to DMSO vehicle control); higher = higher biomarker level / cell amount than vehicle control
Details in all cases: in DMSO
[1] = compound: OCC(F)(F)C(F)(F)C(F)(F)C(F)(F)C(F)(F)C(F)F [1H,1H,7H-Dodecafluoro-1-heptanol]
Procedure: (§1)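 BioMAP Diversity Plus panel of 12 human primary cell co-culture systems (3C, 4H, LPS, SAg, BT, BF4T, BE3C, CASM3C, HDF3CGF, KF3CT, MyoF, Mphg). Compounds were added 1 h before stimulation and left for 24 h (MyoF 48 h; BT 72 h for soluble read-outs or 6 d for IgG). Biomarkers were read by ELISA, cytotoxicity by SRB, PBMC viability and proliferation by Alamar Blue. Each well value was divided by the mean of 8 DMSO control wells on the same plate and log10 transformed; duplicate blinded samples were tested at 4 concentrations.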

Azathioprine = compound: Cn1cnc([N+](=O)[O-])c1Sc1ncnc2[nH]cnc12 [Azathioprine]
Procedure: as §1

Perfluorooctanamidine = compound: N=C(N)C(F)(F)C(F)(F)C(F)(F)C(F)(F)C(F)(F)C(F)(F)C(F)(F)F [Perfluorooctanamidine]
Procedure: as §1

[2] = compound: O=C(O)C(F)(F)C(F)(F)C(F)(F)C(F)(F)C(F)(F)C(F)(F)C(F)(F)C(F)(F)C(F)(F)C(F)(F)C(F)(F)C(F)(F)C(F)(F)F [Perfluorotetradecanoic acid]
Procedure: as §1

[3] = compound: O=C(O)C(F)(F)C(F)(F)C(F)(F)C(F)(F)C(F)(F)C(F)(F)C(F)(F)C(F)(F)Cl [9-Chloro-perfluorononanoic acid]
Procedure: as §1

[4] = compound: O=S(=O)(O)C(F)(F)C(F)(F)C(F)(F)C(F)(F)F [Perfluorobutanesulfonic acid]
Procedure: as §1

[5] = compound: C=CC(=O)OCCC(F)(F)C(F)(F)C(F)(F)C(F)(F)F [2-(Perfluorobutyl)ethyl acrylate]
Procedure: as §1

| Test System | level (log10) ([1]; 6700 nM) | level (log10) ([1]; 20000 nM) | level (log10) ([1]; 60000 nM) | level (log10) (Azathioprine; 1400 nM) | level (log10) (Azathioprine; 4200 nM) | level (log10) (Azathioprine; 13000 nM) | level (log10) (Azathioprine; 38000 nM) | level (log10) (Perfluorooctanamidine; 6700 nM) | level (log10) (Perfluorooctanamidine; 20000 nM) | level (log10) (Perfluorooctanamidine; 60000 nM) | level (log10) ([2]; 6700 nM) | level (log10) ([2]; 20000 nM) | level (log10) ([3]; 6700 nM) | level (log10) ([3]; 20000 nM) | level (log10) ([4]; 6700 nM) | level (log10) ([4]; 20000 nM) | level (log10) ([4]; 60000 nM) | level (log10) ([5]; 6700 nM) | level (log10) ([5]; 20000 nM) | level (log10) ([5]; 60000 nM) |
| --- | --- | --- | --- | --- | --- | --- | --- | --- | --- | --- | --- | --- | --- | --- | --- | --- | --- | --- | --- | --- |
| 4H:CD87/uPAR | 0.016 ± 0.014 | 0.001 ± 0.014 | -0.019 ± 0.031 | 0.0045 ± 0.018 | -0.03 ± 0.035 | -0.0015 ± 0.00071 | 0.0315 ± 0.00071 | 0.0455 ± 0.097 | 0.055 ± 0.028 | 0.146 | -0.0495 ± 0.097 | -0.0345 ± 0.14 | 0.0055 ± 0.033 | 0.002 ± 0.0099 | 0.0115 ± 0.052 | 0.0235 ± 0.022 | 0.025 ± 0.021 | -0.005 ± 0.038 | 0.0055 ± 0.0035 | 0.025 ± 0.0085 |
| 4H:VEGFR2 | -0.011 ± 0.044 | 0.0075 ± 0.061 | 0.014 ± 0.03 | -0.0045 ± 0.012 | 0.0015 ± 0.047 | -0.0195 ± 0.0078 | 0.0155 ± 0.06 | -0.0135 ± 0.023 | -0.023 ± 0.025 | 0.064 | 0.075 ± 0.11 | 0.084 ± 0.09 | -0.108 ± 0.011 | -0.0395 ± 0.013 | -0.049 ± 0.04 | -0.0215 ± 0.026 | -0.012 ± 0.0071 | 0.01 | -0.006 ± 0.017 | -0.0035 ± 0.037 |
| BT:B cell Proliferation | -0.014 ± 0.0028 | -0.035 ± 0.0014 | -0.04 ± 0.02 | -0.0315 ± 0.0064 | -0.0305 ± 0.0092 | -0.0555 ± 0.005 | -0.123 ± 0.026 | -0.0005 ± 0.011 | -0.002 ± 0.017 | -0.086 | -0.0055 ± 0.023 | -0.0035 ± 0.028 | 0.04 ± 0.038 | 0.037 ± 0.017 | -0.0025 ± 0.016 | 0.0085 ± 0.016 | 0.038 ± 0.0014 | -0.018 ± 0.0014 | -0.0275 ± 0.011 | -0.264 ± 0.063 |
| 4H:CD106/VCAM-1 | 0.009 ± 0.034 | -0.016 ± 0.0085 | -0.0125 ± 0.0092 | -0.024 ± 0.017 | -0.0205 ± 0.025 | -0.0655 ± 0.015 | -0.132 ± 0.044 | 0.0015 ± 0.011 | -0.028 ± 0.016 | -0.132 | -0.0805 ± 0.037 | -0.0775 ± 0.0078 | -0.0145 ± 0.0078 | 0.0035 ± 0.013 | -0.024 ± 0.016 | -0.029 ± 0.028 | 0.001 ± 0.033 | -0.0215 ± 0.013 | -0.0495 ± 0.056 | -0.123 ± 0.085 |
| BF4T:CD90 | -0.0045 ± 0.0035 | -0.0085 ± 0.012 | -0.0035 ± 0.015 | -0.0025 ± 0.00071 | -0.0075 ± 0.0035 | -0.0305 ± 0.023 | -0.024 ± 0.018 | 0.0025 ± 0.015 | -0.0115 ± 0.005 | 0.042 | -0.0125 ± 0.011 | -0.005 ± 0.0042 | -0.034 ± 0.013 | -0.0285 ± 0.005 | -0.007 ± 0.0042 | -0.008 ± 0.021 | -0.015 ± 0.011 | -0.017 ± 0.0028 | -0.025 ± 0.0099 | -0.016 ± 0.0071 |
| LPS:CD142/Tissue Factor | -0.008 ± 0.0014 | -0.0175 ± 0.015 | 0.0065 ± 0.025 | 0.042 ± 0.028 | 0.014 ± 0.0042 | 0.0375 ± 0.0064 | -0.0085 ± 0.044 | -0.008 ± 0.037 | 0.0055 ± 0.033 | -0.071 | 0.0225 ± 0.04 | 0.0025 ± 0.098 | 0.0165 ± 0.059 | 0.0375 ± 0.016 | 0.016 ± 0.038 | -0.0155 ± 0.039 | -0.0175 ± 0.016 | 0.027 ± 0.016 | -0.027 ± 0.088 | -0.177 ± 0.12 |
| SAg:CD69 | -0.004 ± 0.013 | -0.0015 ± 0.021 | -0.002 ± 0.016 | 0.0215 ± 0.044 | -0.0295 ± 0.016 | -0.039 ± 0.018 | -0.12 ± 0.013 | 0.006 ± 0.03 | -0.0035 ± 0.019 | -0.036 | -0.0155 ± 0.016 | -0.018 ± 0.028 | -0.0405 ± 0.043 | -0.035 ± 0.028 | -0.008 ± 0.0028 | -0.013 ± 0.017 | -0.043 ± 0.037 | -0.028 ± 0.0028 | -0.0845 ± 0.026 | -0.225 ± 0.037 |
